Laboratory results as given in patent US20130225578A1, “7-CYCLYLQUINAZOLINE DERIVATIVES AND METHODS OF USE THEREOF” (AMBIT BIOSCIENCES CORPORATION, priority 2010, published 2013).

How the values were obtained:
[1] = test system: GM-CSFR/JAK2/STAT5 pathway; experiment: CSTF-1 cell-based reporter assay (beta-lactamase reporter, GM-CSF stimulated); conditions: Homo sapiens; csTF-1 cells, GM-CSF 2 ng/mL, 4 hours; read-out: Cell Assay: CS TF-1 reporter assay IC50
Experimental: CSTF-1 cells are derived from the human erythroleukemia cell line that is growth dependent on GM-CSF and has an intact GM-CSFR/JAK2/STAT5 pathway. The cell line contains stably integrated beta-lactamase reporter gene under the control of the […] (irf 1) response element recognized by the activated transcription factor STAT5. csTF-1 cells (Invitrogen K1219) were washed with assay media (97% OPTIMEM/0.5% dialyzed FBS/0.1 mM NEAA/1 mM Na pyr/P/S) and seeded in the same media at 5×10^5 cell/mL in T150 flask. After 16 hour incubation, cells were seeded at 2×10^5 cell/well in 50 jtl volume, into Costar, clear bottom, 96-well assay plates. Serial dilutions of compounds were added to the plates with final DMSO concentration at 0.5% and GM-CSF at 2 ng/mL and the plates were then incubated at 30° C. and 5% CO2 for 4 hours. The plates were brought to room temperature before adding Substrate Mixture according to manufacturer's protocol (Invitrogen, Catalog #K1085). The assay plates containing the substrate mixture were incubated in the dark at room temperature for 2 hours. Blue and green fluorescence was measured with excitation at 409 nm and emission at 460 nm (for blue) and excitation at 409 nm and emission at 530 nm (for green) using Spectra Max Gemini EM.

JAK2 = target: T1, JAK2 (Homo sapiens, UniProt O60674); experiment: Competition binding assay, JAK2
T1 construct: made in house; host or cells: T7 phage display or HEK-293 cells (alternatives)
Experimental: (§1) Competition binding assays used herein were developed, validated and performed as described in Fabian et al., Nature Biotechnology 2005, 23, 329-336. Kinases were produced as fusions to T7 phage (See, Fabian et al. or WO04/015142) or alternatively, the kinases were expressed in HEK-293 cells and subsequently tagged with DNA for PCR detection (See, WO08/005,310). For the binding assays, streptavidin-coated magnetic beads were treated with biotinylated affinity ligands for […] at rt to generate affinity resins. The liganded beads were blocked with excess biotin and washed with blocking buffer (SeaBlock (Pierce), 1% BSA, 0.05% Tween 20, 1 mM DTT) to remove unbound ligand and to reduce non-specific binding. Binding reactions were assembled by combining kinase, liganded affinity beads, and test compounds in 1× binding buffer (20% SeaBlock, 0.17×PBS, 0.05% Tween 20, 6 mM DTT). Test compounds were prepared as 100× stocks in DMSO and rapidly diluted into the aqueous environment. DMSO was added to control assays lacking a test compound. Primary screen interactions were performed in polypropylene 384-well plates in a final volume of 34 μL, while Kd determinations were performed in polystyrene 96-well plates in a final volume of 135 μL. The assay plates were incubated at room temperature with shaking for 1 hour, long enough for binding reactions to reach equilibrium, and the affinity beads were washed extensively with wash buffer (1×PBS, 0.05% Tween 20) to remove unbound protein. The beads were then resuspended in elution buffer (1×PBS, 0.05% Tween 20, 2 μM non-biotinylated affinity ligand) and incubated at room temperature with shaking for 30 min. The kinase concentration in the eluates was measured by quantitative PCR. Each kinase was tested individually against each compound. Kds were determined using eleven serial threefold dilutions. A selectivity score, which is a quantitative measure of selectivity of a compound against a panel of enzymes, may be calculated for a compound by dividing the number of enzymes for which a compound meets a set criteria, (for example, a binding constant of 100 nM or less), by the total number of enzymes tested.

JAK3 = target: T2, JAK3 (Homo sapiens, UniProt P52333); experiment: Competition binding assay, JAK3
T2 construct: made in house; host or cells: T7 phage display or HEK-293 cells (alternatives)
T2 sequence (P52333 1-1124): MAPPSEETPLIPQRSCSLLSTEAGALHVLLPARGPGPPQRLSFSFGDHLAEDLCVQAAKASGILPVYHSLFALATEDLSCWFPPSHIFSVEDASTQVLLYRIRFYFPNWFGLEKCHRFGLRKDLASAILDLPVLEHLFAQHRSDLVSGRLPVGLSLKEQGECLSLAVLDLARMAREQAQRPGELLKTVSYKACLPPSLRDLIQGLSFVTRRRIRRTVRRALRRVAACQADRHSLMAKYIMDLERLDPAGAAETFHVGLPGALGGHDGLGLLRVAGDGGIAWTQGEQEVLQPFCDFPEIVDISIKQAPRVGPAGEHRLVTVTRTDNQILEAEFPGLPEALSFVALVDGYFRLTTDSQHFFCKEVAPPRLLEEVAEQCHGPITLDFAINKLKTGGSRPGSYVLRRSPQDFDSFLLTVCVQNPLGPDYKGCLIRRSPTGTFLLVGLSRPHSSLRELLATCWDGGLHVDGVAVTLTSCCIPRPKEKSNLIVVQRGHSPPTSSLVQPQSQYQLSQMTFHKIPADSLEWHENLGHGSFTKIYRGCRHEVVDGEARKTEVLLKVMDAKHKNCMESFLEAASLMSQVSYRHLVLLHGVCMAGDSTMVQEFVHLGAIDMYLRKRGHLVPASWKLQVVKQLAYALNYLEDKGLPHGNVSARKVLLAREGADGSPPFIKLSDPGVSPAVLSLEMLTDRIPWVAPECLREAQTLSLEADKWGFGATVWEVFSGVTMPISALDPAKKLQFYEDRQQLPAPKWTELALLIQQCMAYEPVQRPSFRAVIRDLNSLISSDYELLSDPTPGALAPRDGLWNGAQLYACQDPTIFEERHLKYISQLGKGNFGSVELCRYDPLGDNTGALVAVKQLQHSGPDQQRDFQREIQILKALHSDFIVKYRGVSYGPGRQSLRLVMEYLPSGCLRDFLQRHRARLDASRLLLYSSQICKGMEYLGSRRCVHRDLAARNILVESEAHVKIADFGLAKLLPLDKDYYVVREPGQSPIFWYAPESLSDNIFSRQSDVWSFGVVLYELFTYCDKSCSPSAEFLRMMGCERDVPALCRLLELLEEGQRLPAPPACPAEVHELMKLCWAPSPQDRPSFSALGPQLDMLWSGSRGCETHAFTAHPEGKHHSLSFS
Experimental: as §1

TYK2 = target: T3, TYK2 (Homo sapiens, UniProt P29597); experiment: Competition binding assay, TYK2
T3 construct: made in house; host or cells: T7 phage display or HEK-293 cells (alternatives)
Experimental: as §1

[2] = test system: distinct kinases tested excluding mutant variants, typically 359 or 386 kinases; experiment: Kinase panel competition binding, selectivity score; conditions: compound at 10 μM; fraction of kinases with inhibition of 90% or greater
Experimental: as §1

T3 sequence (P29597 whole entry): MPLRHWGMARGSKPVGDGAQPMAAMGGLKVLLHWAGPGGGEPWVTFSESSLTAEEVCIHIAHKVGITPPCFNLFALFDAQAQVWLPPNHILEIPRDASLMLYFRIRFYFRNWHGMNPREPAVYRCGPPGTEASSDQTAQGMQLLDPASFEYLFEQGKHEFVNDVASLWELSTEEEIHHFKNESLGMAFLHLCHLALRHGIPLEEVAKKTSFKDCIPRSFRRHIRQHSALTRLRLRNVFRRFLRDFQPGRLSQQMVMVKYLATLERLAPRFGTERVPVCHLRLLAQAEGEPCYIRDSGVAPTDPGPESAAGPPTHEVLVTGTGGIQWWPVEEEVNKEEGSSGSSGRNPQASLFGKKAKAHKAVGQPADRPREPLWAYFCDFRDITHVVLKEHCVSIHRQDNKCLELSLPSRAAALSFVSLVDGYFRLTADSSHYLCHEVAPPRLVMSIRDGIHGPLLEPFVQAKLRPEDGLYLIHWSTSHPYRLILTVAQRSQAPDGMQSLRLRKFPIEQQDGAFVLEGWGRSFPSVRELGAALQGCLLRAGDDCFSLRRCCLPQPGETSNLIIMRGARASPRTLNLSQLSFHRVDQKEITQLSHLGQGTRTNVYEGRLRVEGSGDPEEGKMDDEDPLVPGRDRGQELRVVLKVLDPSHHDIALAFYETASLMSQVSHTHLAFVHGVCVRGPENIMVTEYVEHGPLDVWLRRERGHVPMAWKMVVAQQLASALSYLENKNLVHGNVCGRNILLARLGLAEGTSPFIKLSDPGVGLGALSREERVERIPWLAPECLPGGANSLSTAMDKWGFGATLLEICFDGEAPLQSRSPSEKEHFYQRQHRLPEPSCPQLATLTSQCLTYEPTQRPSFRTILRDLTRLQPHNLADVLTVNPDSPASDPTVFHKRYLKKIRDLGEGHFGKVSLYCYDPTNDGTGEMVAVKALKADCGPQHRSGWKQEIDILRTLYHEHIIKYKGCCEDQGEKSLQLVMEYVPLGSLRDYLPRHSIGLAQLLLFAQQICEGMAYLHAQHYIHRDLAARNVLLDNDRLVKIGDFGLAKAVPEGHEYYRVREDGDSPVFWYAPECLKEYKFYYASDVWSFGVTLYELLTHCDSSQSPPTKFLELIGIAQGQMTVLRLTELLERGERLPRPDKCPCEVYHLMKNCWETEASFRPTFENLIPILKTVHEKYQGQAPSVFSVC
T1 sequence (O60674 whole entry): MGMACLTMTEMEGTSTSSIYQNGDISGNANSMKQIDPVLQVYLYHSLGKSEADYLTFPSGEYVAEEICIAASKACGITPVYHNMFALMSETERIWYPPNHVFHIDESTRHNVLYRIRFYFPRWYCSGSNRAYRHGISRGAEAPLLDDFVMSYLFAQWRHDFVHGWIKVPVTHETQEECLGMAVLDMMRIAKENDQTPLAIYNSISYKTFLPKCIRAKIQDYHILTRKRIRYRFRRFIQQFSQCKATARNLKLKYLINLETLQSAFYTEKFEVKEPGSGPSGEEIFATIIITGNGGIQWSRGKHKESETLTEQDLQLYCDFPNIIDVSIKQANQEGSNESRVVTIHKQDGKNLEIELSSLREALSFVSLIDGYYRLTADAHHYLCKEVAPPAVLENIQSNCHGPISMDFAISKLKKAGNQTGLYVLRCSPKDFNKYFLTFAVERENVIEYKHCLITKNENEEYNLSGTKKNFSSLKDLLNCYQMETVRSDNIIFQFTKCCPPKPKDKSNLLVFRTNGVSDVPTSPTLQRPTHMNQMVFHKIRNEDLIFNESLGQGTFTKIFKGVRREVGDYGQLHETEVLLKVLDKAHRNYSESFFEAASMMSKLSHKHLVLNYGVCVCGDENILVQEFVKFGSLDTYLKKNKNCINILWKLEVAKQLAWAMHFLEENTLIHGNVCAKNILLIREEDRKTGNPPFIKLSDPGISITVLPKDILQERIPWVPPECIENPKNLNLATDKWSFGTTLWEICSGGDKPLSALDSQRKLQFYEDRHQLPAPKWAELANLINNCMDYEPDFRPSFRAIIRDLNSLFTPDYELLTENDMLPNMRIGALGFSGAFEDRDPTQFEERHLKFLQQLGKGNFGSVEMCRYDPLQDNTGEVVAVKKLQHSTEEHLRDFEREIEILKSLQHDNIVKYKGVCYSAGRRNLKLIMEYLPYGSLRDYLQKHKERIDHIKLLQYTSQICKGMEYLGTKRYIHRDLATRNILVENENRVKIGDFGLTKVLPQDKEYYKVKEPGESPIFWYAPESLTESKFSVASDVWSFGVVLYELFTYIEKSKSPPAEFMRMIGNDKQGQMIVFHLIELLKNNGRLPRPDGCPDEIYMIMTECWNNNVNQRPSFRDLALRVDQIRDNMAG

Cc1cc(Nc2nc(C(F)(F)c3ccc(F)cc3)nc3cc(-c4c(C)noc4C)ccc23)n[nH]1 [Example 6, 2-(difluoro(4-fluorophenyl)methyl)-7-(3,5-dimethylisoxazol-4-yl)-N-(5-methyl-1H-pyrazol-3-yl)quinazolin-4-amine]
IC50 [1]: 100 to 500 nM | Kd (JAK2): 1 to 10 nM | Kd (JAK3): ≤ 10 nM | Kd (TYK2): ≤ 10 nM | S-Score: S(10) at 10 μM [2]: B (0.3≦B≦0.4)

Cc1cc(Nc2nc(C(F)(F)c3ccc(F)cc3)nc3cc(C4=CCOCC4)ccc23)n[nH]1 [Example 4, 2-(difluoro(4-fluorophenyl)methyl)-7-(3,6-dihydro-2H-pyran-4-yl)-N-(5-methyl-1H-pyrazol-3-yl)quinazolin-4-amine]
IC50 [1]: 100 to 500 nM | Kd (JAK2): 1 to 10 nM | Kd (JAK3): ≤ 10 nM | Kd (TYK2): ≤ 10 nM | S-Score: S(10) at 10 μM [2]: A (A≦0.3)

Cc1cc(Nc2nc(C(F)(F)c3ccc(F)cc3)nc3cc(N4C[C@H](O)CC4=O)ccc23)n[nH]1 [Example 7, (R)-1-(2-(difluoro(4-fluorophenyl)methyl)-4-(5-methyl-1H-pyrazol-3-ylamino)quinazolin-7-yl)-4-hydroxypyrrolidin-2-one]
IC50 [1]: 100 to 500 nM | Kd (JAK2): ≤ 1 nM | Kd (JAK3): ≤ 10 nM | Kd (TYK2): ≤ 10 nM | S-Score: S(10) at 10 μM [2]: D (D>0.5)

Cc1cc(Nc2nc(C(F)(F)c3ccc(F)cc3)nc3cc(CN4CCOCC4)ccc23)n[nH]1 [Example 8, 2-(difluoro(4-fluorophenyl)methyl)-N-(5-methyl-1H-pyrazol-3-yl)-7-(morpholinomethyl)quinazolin-4-amine]
IC50 [1]: ≤ 100 nM | Kd (JAK2): ≤ 1 nM | Kd (JAK3): ≤ 10 nM | Kd (TYK2): ≤ 10 nM | S-Score: S(10) at 10 μM [2]: D (D>0.5)

Cc1cc(Nc2nc(C(F)(F)c3ccc(F)cc3)nc3cc(C4(O)COC4)ccc23)n[nH]1 [Example 3, 3-(2-(difluoro(4-fluorophenyl)methyl)-4-(5-methyl-1H-pyrazol-3-ylamino)quinazolin-7-yl)oxetan-3-ol]
IC50 [1]: ≤ 100 nM | Kd (JAK2): ≤ 1 nM | Kd (JAK3): ≤ 10 nM | Kd (TYK2): ≤ 10 nM | S-Score: S(10) at 10 μM [2]: D (D>0.5)

Cc1cc(Nc2nc(C(F)(F)c3ccc(F)cc3)nc3cc(-c4cncnc4)ccc23)n[nH]1 [Example 2, 2-(difluoro(4-fluorophenyl)methyl)-N-(5-methyl-1H-pyrazol-3-yl)-7-(pyrimidin-5-yl)quinazolin-4-amine]
IC50 [1]: ≤ 100 nM | Kd (JAK2): ≤ 1 nM | Kd (JAK3): ≤ 10 nM | Kd (TYK2): ≤ 10 nM | S-Score: S(10) at 10 μM [2]: A (A≦0.3)

Cc1cc(Nc2nc(C(F)(F)c3ccc(F)cc3)nc3cc(-c4ccccc4O)ccc23)n[nH]1 [Example 5, 2-(2-(difluoro(4-fluorophenyl)methyl)-4-(5-methyl-1H-pyrazol-3-ylamino)quinazolin-7-yl)phenol]
IC50 [1]: 100 to 500 nM | Kd (JAK2): 1 to 10 nM | Kd (JAK3): 10 to 100 nM | Kd (TYK2): 10 to 100 nM | S-Score: S(10) at 10 μM [2]: A (A≦0.3)

Cc1cc(Nc2nc(C(F)(F)c3ccc(F)cc3)nc3cc(-c4cnn(C)c4)ccc23)n[nH]1 [Example 1, 2-(difluoro(4-fluorophenyl)methyl)-N-(5-methyl-1H-pyrazol-3-yl)-7-(1-methyl-1H-pyrazol-4-yl)quinazolin-4-amine]
IC50 [1]: ≤ 100 nM | Kd (JAK2): ≤ 1 nM | Kd (JAK3): ≤ 10 nM | Kd (TYK2): ≤ 10 nM | S-Score: S(10) at 10 μM [2]: A (A≦0.3)
